IC50 data for 22 compounds are collected here from patent US11021493B2, “1,4-thiazine dioxide and 1,2,4-thiadiazine dioxide derivatives as beta-secretase inhibitors and methods of use” (AMGEN INC., priority 2016, dated 2021).

By IC50 is commonly meant the midpoint of a concentration-inhibition curve.

For one experiment, the target named is human recombinant BACE2 (Homo sapiens (Human), UniProt Q9Y5Z0). Kind of experiment: In vitro enzymatic BACE2 FRET assay. It counts as biochemical. Particulars: read-out: BACE2 Enzyme IC50.
human recombinant BACE2, sequence (Q9Y5Z0 63-518): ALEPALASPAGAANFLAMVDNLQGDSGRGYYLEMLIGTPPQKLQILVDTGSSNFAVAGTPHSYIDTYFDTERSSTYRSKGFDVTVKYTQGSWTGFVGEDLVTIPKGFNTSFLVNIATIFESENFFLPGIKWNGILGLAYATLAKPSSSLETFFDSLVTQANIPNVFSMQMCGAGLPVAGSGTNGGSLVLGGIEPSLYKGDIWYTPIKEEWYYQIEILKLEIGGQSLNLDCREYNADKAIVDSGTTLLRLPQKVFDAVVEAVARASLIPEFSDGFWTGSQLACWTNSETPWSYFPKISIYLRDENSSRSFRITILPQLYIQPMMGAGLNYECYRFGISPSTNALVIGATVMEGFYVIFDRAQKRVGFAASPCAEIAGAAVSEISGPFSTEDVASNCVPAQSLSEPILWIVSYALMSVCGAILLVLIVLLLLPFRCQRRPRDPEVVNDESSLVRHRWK
In the next experiment the target is Cathepsin D (CatD) (Homo sapiens (Human), UniProt P07339). Kind of experiment: In vitro enzymatic Cathepsin D (CatD) FRET assay. It counts as biochemical. Particulars: read-out: Cat D Enzyme IC50.
Cathepsin D (CatD), sequence (P07339 65-412, species assumed): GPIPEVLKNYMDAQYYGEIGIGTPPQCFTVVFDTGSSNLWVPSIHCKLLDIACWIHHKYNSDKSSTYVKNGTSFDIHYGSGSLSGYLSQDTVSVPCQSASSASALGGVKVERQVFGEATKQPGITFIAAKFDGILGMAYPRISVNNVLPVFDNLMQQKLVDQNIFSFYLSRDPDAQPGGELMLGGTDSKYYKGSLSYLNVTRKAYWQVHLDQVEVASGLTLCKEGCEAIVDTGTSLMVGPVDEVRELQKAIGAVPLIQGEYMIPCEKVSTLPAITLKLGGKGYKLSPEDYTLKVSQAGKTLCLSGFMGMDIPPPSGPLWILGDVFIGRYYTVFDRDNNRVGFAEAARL
Experiment [1] concerns the target T1, BACE1 (Homo sapiens (Human), UniProt P56817). Kind of experiment: In vitro enzymatic BACE1 FRET assay. It counts as biochemical. Particulars: read-out: BACE1 Enzyme IC50.
Target sequence in this assay (P56817 46-501): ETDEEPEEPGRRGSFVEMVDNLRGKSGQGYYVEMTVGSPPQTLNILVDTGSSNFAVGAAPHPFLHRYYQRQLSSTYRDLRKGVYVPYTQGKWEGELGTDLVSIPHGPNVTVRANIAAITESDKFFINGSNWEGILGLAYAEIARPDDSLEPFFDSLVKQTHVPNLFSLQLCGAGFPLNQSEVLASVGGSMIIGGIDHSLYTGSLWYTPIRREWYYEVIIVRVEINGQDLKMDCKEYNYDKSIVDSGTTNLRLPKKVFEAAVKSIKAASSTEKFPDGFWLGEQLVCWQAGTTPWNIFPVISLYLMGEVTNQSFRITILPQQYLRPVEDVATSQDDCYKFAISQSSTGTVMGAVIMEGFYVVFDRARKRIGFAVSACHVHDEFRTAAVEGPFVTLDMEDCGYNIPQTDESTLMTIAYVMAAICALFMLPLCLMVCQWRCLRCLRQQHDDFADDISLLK
Experiment [2] addresses T1, BACE1. Briefly: In vitro BACE1 cell-based assay (Aβ40 in conditioned medium of cells stably expressing APP, HTRF). (TR-FRET usually uses a lanthanide donor and a delayed reading to cut background.)
Target sequence in this assay (P56817 46-501, species assumed): as the sequence (P56817 46-501) above
[3] abbreviates: Aβ40 in conditioned media after 24 h incubation.

Counter-ions that a name gives are not always drawn.

As to `CC#CCOc1cnc(/C(F)=C/c2ccc(F)c([C@]3(C)CS(=O)(=O)N(C)C(N)=N3)c2)cn1` [Example 168, (R,Z)-3-amino-5-(5-(2-(5-(but-2-yn-1-yloxy)pyrazin-2-yl)-2-fluorovinyl)-2-fluorophenyl)-2,5-dimethyl-5,6-dihydro-2H-1,2,4-thiadiazine 1,1-dioxide], the IC50 at human recombinant BACE2 worked out at 10 nM; at Cathepsin D (CatD) it was 25400 nM.
The like results for `CC#CCOc1cnc(/C(F)=C/c2cc(F)c(F)c([C@]3(C)CS(=O)(=O)N(C)C(N)=N3)c2)cn1` [Example 165, (R,Z)-3-amino-5-(5-(2-(5-(but-2-yn-1-yloxy)pyrazin-2-yl)-2-fluorovinyl)-2,3-difluorophenyl)-2,5-dimethyl-5,6-dihydro-2H-1,2,4-thiadiazine 1,1-dioxide] were, in that order, 47 nM and 18200 nM.
Taken in the same sequence, the figures for `Cc1cc(COc2cnc(/C(F)=C/c3cc(F)c(F)c([C@]4(C)CS(=O)(=O)N(C)C(N)=N4)c3)cn2)no1` [Example 223, (R,Z)-3-amino-5-(2,3-difluoro-5-(2-fluoro-2-(5-((5-methylisoxazol-3-yl)methoxy)pyrazin-2-yl)vinyl)phenyl)-2,5-dimethyl-5,6-dihydro-2H-1,2,4-thiadiazine 1,1-dioxide] were 210 nM and 22300 nM.
The like results for `Cc1nnc(COc2cnc(/C(F)=C/c3cc(F)c(F)c([C@]4(C)CS(=O)(=O)N(C)C(N)=N4)c3)cn2)o1` [Example 233, (R,Z)-3-amino-5-(2,3-difluoro-5-(2-fluoro-2-(5-((5-methyl-1,3,4-oxadiazol-2-yl)methoxy)pyrazin-2-yl)vinyl)phenyl)-2,5-dimethyl-5,6-dihydro-2H-1,2,4-thiadiazine 1,1-dioxide] were, in that order, 621 nM and 51700 nM.
`Cc1nc(COc2cnc(/C(F)=C/c3cc(F)c(F)c([C@]4(C)CS(=O)(=O)N(C)C(N)=N4)c3)cn2)no1` [Example 229, (R,Z)-3-amino-5-(2,3-difluoro-5-(2-fluoro-2-(5-((5-methyl-1,2,4-oxadiazol-3-yl)methoxy)pyrazin-2-yl)vinyl)phenyl)-2,5-dimethyl-5,6-dihydro-2H-1,2,4-thiadiazine 1,1-dioxide]: the values for the IC50 at human recombinant BACE2 and on Cathepsin D (CatD) were 257 nM and 68200 nM, respectively.
`CN1C(N)=N[C@](C)(c2cc(/C=C(\F)c3cc4nccnc4cn3)ccc2F)CS1(=O)=O` [Example 250, (5R)-5-(2-fluoro-5-((Z)-2-fluoro-2-(pyrido[3,4-b]pyrazin-7-yl)ethenyl)phenyl)-2,5-dimethyl-5,6-dihydro-2H-1,2,4-thiadiazin-3-amine 1,1-dioxide]: on Cathepsin D (CatD), the IC50 was more than 400000 nM.
Take `C#CCOc1cnc(/C(F)=C/c2ccc(F)c([C@]3(C)CS(=O)(=O)C(C)(C)C(N)=N3)c2)cn1` [Example 123, (R,Z)-5-amino-3-(2-fluoro-5-(2-fluoro-2-(5-(prop-2-yn-1-yloxy)pyrazin-2-yl)vinyl)phenyl)-3,6,6-trimethyl-3,6-dihydro-2H-1,4-thiazine 1,1-dioxide]: the IC50 on BACE1 [1] is 1 nM; at BACE1 [2], 3 nM.
Take `CN1C(N)=N[C@](C)(c2cc(/C=C(\F)c3cnc(C#N)cn3)ccc2F)C(C)(C)S1(=O)=O` [Example 181, (R,Z)-5-(2-(3-(3-amino-2,5,6,6-tetramethyl-1,1-dioxido-5,6-dihydro-2H-1,2,4-thiadiazin-5-yl)-4-fluorophenyl)-1-fluorovinyl)pyrazine-2-carbonitrile]: the IC50 worked out at 87 nM at human recombinant BACE2 and 178000 nM at Cathepsin D (CatD).
Taken in the same sequence, the figures for `Cc1cnc(COc2cnc(/C(F)=C/c3cc(F)c(F)c([C@]4(C)CS(=O)(=O)N(C)C(N)=N4)c3)cn2)o1` [Example 246, (R,Z)-3-amino-5-(2,3-difluoro-5-(2-fluoro-2-(5-((5-methyloxazol-2-yl)methoxy)pyrazin-2-yl)vinyl)phenyl)-2,5-dimethyl-5,6-dihydro-2H-1,2,4-thiadiazine 1,1-dioxide] were 111 nM and 34900 nM.
Regarding `CN1C(N)=N[C@](C)(c2cc(/C=C(\F)c3cnc(OCc4cocn4)cn3)cc(F)c2F)CS1(=O)=O` [Example 225, (R,Z)-3-amino-5-(2,3-difluoro-5-(2-fluoro-2-(5-(oxazol-4-ylmethoxy)pyrazin-2-yl)vinyl)phenyl)-2,5-dimethyl-5,6-dihydro-2H-1,2,4-thiadiazine 1,1-dioxide], the results for the IC50 at human recombinant BACE2 and on Cathepsin D (CatD) were 84 nM and 69800 nM, respectively.
Taken in the same sequence, the figures for `CCOC(=O)COc1cnc(/C(F)=C/c2cc(F)c(F)c([C@]3(C)CS(=O)(=O)N(C)C(N)=N3)c2)cn1` [Example 243, (R,Z)-ethyl 2-((5-(2-(3-(3-amino-2,5-dimethyl-1,1-dioxido-5,6-dihydro-2H-1,2,4-thiadiazin-5-yl)-4,5-difluorophenyl)-1-fluorovinyl)pyrazin-2-yl)oxy)acetate] were 398 nM and 90300 nM.
Taken in the same sequence, the figures for `CC1(C)C(N)=N[C@](C)(c2cc(/C=C(\F)c3cnc(OCC4CC4)cn3)ccc2F)CS1(=O)=O` [Example 206, (R,Z)-5-amino-3-(5-(2-(5-(cyclopropylmethoxy)pyrazin-2-yl)-2-fluorovinyl)-2-fluorophenyl)-3,6,6-trimethyl-3,6-dihydro-2H-1,4-thiazine 1,1-dioxide] were 139 nM and 74700 nM.
The like results for `Cc1csc(COc2cnc(/C(F)=C/c3cc(F)c(F)c([C@]4(C)CS(=O)(=O)N(C)C(N)=N4)c3)cn2)n1` [Example 237, (R,Z)-3-amino-5-(2,3-difluoro-5-(2-fluoro-2-(5-((4-methylthiazol-2-yl)methoxy)pyrazin-2-yl)vinyl)phenyl)-2,5-dimethyl-5,6-dihydro-2H-1,2,4-thiadiazine 1,1-dioxide] were, in that order, 103 nM and 25400 nM.
On to `CC1(C)C(N)=N[C@](C)(c2cc(/C=C(\F)c3cnc(O)cn3)ccc2F)CS1(=O)=O` [Example 140, (R,Z)-5-amino-3-(2-fluoro-5-(2-fluoro-2-(5-hydroxypyrazin-2-yl)vinyl)phenyl)-3,6,6-trimethyl-3,6-dihydro-2H-1,4-thiazine 1,1-dioxide], for which the IC50 on human recombinant BACE2 worked out at 203 nM; against BACE1 [2] (setting [3]), 241 nM; on Cathepsin D (CatD) it was 177000 nM.
For `CC1(C)C(N)=N[C@](C)(c2cc(/C=C(\F)c3cnc(Cl)cn3)ccc2F)CS1(=O)=O` [Example 159, (R,Z)-5-amino-3-(5-(2-(5-chloropyrazin-2-yl)-2-fluorovinyl)-2-fluorophenyl)-3,6,6-trimethyl-3,6-dihydro-2H-1,4-thiazine 1,1-dioxide], the IC50 came out at 3 nM at human recombinant BACE2 and 143000 nM on Cathepsin D (CatD).
The like results for `CN1C(N)=N[C@](C)(c2cc(/C=C(\F)c3cnc(OCc4cscn4)cn3)cc(F)c2F)CS1(=O)=O` [Example 220, (R,Z)-3-amino-5-(2,3-difluoro-5-(2-fluoro-2-(5-(thiazol-4-ylmethoxy)pyrazin-2-yl)vinyl)phenyl)-2,5-dimethyl-5,6-dihydro-2H-1,2,4-thiadiazine 1,1-dioxide] were, in that order, 66 nM and 32200 nM.
For the compound `C#C[C@H](C)Oc1cnc(/C(F)=C/c2cc(F)c(F)c([C@]3(C)CS(=O)(=O)N(C)C(N)=N3)c2)cn1` [Example 167, (R)-3-amino-5-(5-((Z)-2-(5-((S)-but-3-yn-2-yloxy)pyrazin-2-yl)-2-fluorovinyl)-2,3-difluorophenyl)-2,5-dimethyl-5,6-dihydro-2H-1,2,4-thiadiazine 1,1-dioxide hydrochloride], the IC50 stood at 290 nM on human recombinant BACE2, 11 nM on BACE1 [2] (setting [3]) and 32500 nM at Cathepsin D (CatD).
Taken in the same sequence, the figures for `CN1C(N)=N[C@](C)(c2cc(/C=C(\F)c3cnc(OCC4CCC4)cn3)ccc2F)CS1(=O)=O` [Example 174, (R,Z)-3-amino-5-(5-(2-(5-(cyclobutylmethoxy)pyrazin-2-yl)-2-fluorovinyl)-2-fluorophenyl)-2,5-dimethyl-5,6-dihydro-2H-1,2,4-thiadiazine 1,1-dioxide] were 113 nM, 1400 nM and 22000 nM.
For `CN1C(N)=N[C@](C)(c2cc(/C=C(\F)c3cnc(OCc4ncccn4)cn3)cc(F)c2F)CS1(=O)=O` [Example 228, (R,Z)-3-amino-5-(2,3-difluoro-5-(2-fluoro-2-(5-(pyrimidin-2-ylmethoxy)pyrazin-2-yl)vinyl)phenyl)-2,5-dimethyl-5,6-dihydro-2H-1,2,4-thiadiazine 1,1-dioxide], the figures for the IC50 on human recombinant BACE2 and at Cathepsin D (CatD) were 266 nM and 39500 nM, respectively.
With `Cc1nc(COc2cnc(/C(F)=C/c3cc(F)c(F)c([C@]4(C)CS(=O)(=O)N(C)C(N)=N4)c3)cn2)c(C)o1` [Example 238, (R,Z)-3-amino-5-(5-(2-(5-((2,5-dimethyloxazol-4-yl)methoxy)pyrazin-2-yl)-2-fluorovinyl)-2,3-difluorophenyl)-2,5-dimethyl-5,6-dihydro-2H-1,2,4-thiadiazine 1,1-dioxide], the IC50 at human recombinant BACE2 stood at 94 nM; on Cathepsin D (CatD), 46800 nM.
As for `CN1C(N)=N[C@](C)(c2cc(/C=C(\F)c3cnc(OCc4nccn4C)cn3)cc(F)c2F)CS1(=O)=O` [Example 249, (R,Z)-3-amino-5-(2,3-difluoro-5-(2-fluoro-2-(5-((1-methyl-1H-imidazol-2-yl)methoxy)pyrazin-2-yl)vinyl)phenyl)-2,5-dimethyl-5,6-dihydro-2H-1,2,4-thiadiazine 1,1-dioxide], the IC50 on human recombinant BACE2 was 1820 nM; on Cathepsin D (CatD) it was more than 400000 nM.
As for `Cc1noc(COc2cnc(/C(F)=C/c3cc(F)c(F)c([C@]4(C)CS(=O)(=O)N(C)C(N)=N4)c3)cn2)n1` [Example 224, (R,Z)-3-amino-5-(2,3-difluoro-5-(2-fluoro-2-(5-((3-methyl-1,2,4-oxadiazol-5-yl)methoxy)pyrazin-2-yl)vinyl)phenyl)-2,5-dimethyl-5,6-dihydro-2H-1,2,4-thiadiazine 1,1-dioxide], the results for the IC50 at human recombinant BACE2 and on Cathepsin D (CatD) were 421 nM and 74800 nM, respectively.
